Test results: ChEMBL document CHEMBL3596145, “Structure and inhibition studies of a type II beta-carbonic anhydrase psCA3 from Pseudomonas aeruginosa” (Bioorg Med Chem, 2015)
Activity calls are given as the source filed them. The rule behind the calls is not given here.

How the values were obtained:
Carbonic anhydrase = target: T1, Carbonic anhydrase (Pseudomonas aeruginosa (strain ATCC 15692 / PAO1 / 1C / PRS 101 / LMG12228), UniProt Q9HVB9); assay: biochemical; type: cell-based, BL21-DE3
T1 sequence (Q9HVB9 whole entry): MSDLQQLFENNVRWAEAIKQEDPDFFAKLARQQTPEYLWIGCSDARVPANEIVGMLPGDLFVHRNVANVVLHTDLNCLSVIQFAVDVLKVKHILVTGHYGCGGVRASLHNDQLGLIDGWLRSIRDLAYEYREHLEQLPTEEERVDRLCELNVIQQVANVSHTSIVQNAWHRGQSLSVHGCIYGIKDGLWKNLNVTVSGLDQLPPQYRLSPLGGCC
Description: Inhibition of Pseudomonas aeruginosa PAO1 type-2 beta-carbonic anhydrase psCA3 expressed in Escherichia coli Tuner BL21 (DE3) cells pre-incubated for 15 mins at pH 8.3 and 293K by CO2 hydration reaction based colorimetric stopped-flow method

Pseudomonas aeruginosa [1] = assay: Induction of growth defect in Pseudomonas aeruginosa PAO1 up to 1 mM; type: functional, organism-based
Pseudomonas aeruginosa [2] = assay: Induction of growth delay of Pseudomonas aeruginosa PAO1 assessed as growth delay time; type: functional
Pseudomonas aeruginosa [3] = assay: Growth inhibition of Pseudomonas aeruginosa PAO1; type: functional, organism-based

| SMILES | Ki (Carbonic anhydrase) [µM] | also measured |
| --- | --- | --- |
| Nc1cccc(S(N)(=O)=O)c1 | 0.032 | – |
| CCN(CC)C(=S)S [DITIOCARB SODIUM] | 330 | – |
| OB(O)c1ccccc1 [PHENYLBORONIC ACID] | 8 | – |
| [N-]=[N+]=[N-] [SODIUM AZIDE] | 770 | – |
| O=C([O-])O.[Na+] [SODIUM BICARBONATE] | 3200 | – |
| O=S([O-])O.[Na+] [SODIUM BISULFITE] | 7000 | – |
| [Br-].[Na+] [SODIUM BROMIDE] | > 100000 | – |
| S=C(S)S [SODIUM CARBONOTRITHIOATE] | 840 | – |
| [Cl-].[Na+] [SODIUM CHLORIDE] | > 100000 | – |
| N#CO [SODIUM CYANATE] | 650 | – |
| [F-].[Na+] [SODIUM FLUORIDE] | > 100000 | – |
| S [SODIUM HYDROSULFIDE] | 620 | – |
| O=S(=O)(O)ONOS(=O)(=O)O [SODIUM IMINODISULFATE] | 4700 | – |
| [I-].[Na+] [SODIUM IODIDE] | > 100000 | – |
| O=[N+]([O-])[O-].[Na+] [SODIUM NITRATE] | 14200 | – |
| O=NO [SODIUM NITRITE] | 940 | – |
| [O-][Cl+3]([O-])([O-])O [SODIUM PERCHLORATE] | > 100000 | – |
| O=S(=O)(O)OOS(=O)(=O)O [SODIUM PERSULFATE] | 720 | – |
| O=[Se](=O)(O)O [SODIUM SELENATE] | 23500 | – |
| N#C[SeH] [SODIUM SELENOCYANATE] | 680 | – |
| O=S(=O)([O-])[O-].[Na+].[Na+] [SODIUM SULFATE ANHYDROUS] | > 100000 | – |
| O=[Te](=O)(O)O [SODIUM TELLURATE] | 7900 | – |
| O=BOB(O)OB(O)OB=O [SODIUM TETRABORATE] | 9100 | – |
| F[B-](F)(F)F.[Na+] [SODIUM TETRAFLUOROBORATE] | > 100000 | – |
| NS(=O)(=O)O [SULFAMATE] | 38 | – |
| NS(N)(=O)=O [SULFAMIDE] | 8 | Activity (Pseudomonas aeruginosa [1]): Active; Time (Pseudomonas aeruginosa [2]): 1 h; growth inhibition (GI) (Pseudomonas aeruginosa [3]): inactive |
| N#C[S-].[Na+] [THIOCYANATE SODIUM] | 610 | – |
